Here are results for 6 compounds from patent publication US11648239B2, “Azophenols as ERG oncogene inhibitors” (The Henry M. Jackson Foundation for the Advancement of …, priority 2015, dated 2023).

The target of data set [1] is T1, ERG protein (Homo sapiens, UniProt P11308).
T1 construct: host or cells: VCaP
T1 sequence (P11308 33-479 limits assumed): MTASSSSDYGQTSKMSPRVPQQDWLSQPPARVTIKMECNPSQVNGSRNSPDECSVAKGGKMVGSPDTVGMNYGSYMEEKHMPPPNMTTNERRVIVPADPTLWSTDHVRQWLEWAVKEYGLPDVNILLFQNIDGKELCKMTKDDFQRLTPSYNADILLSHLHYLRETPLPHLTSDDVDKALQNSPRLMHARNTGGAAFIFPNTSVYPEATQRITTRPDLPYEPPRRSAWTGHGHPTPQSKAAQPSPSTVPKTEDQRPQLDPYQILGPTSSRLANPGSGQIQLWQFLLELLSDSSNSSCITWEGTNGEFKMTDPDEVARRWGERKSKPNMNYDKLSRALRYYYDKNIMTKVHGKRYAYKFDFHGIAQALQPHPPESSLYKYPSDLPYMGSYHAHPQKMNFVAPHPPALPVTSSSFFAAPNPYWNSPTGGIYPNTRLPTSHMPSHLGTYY
Description: Inhibition of ERG protein in VCaP cells (Western blot). In kind it is cell-based. Particulars: VCaP, metastatic prostate cancer, TMPRSS2-ERG fusion; N/D = assay performed, inhibition not detected at the tested levels. How it is done:
The TMPRSS2-ERG fusion positive prostate cancer cell line, VCaP (ATCC), was used to identify the test compound inhibitors of ERG expression. Cells were grown in medium using conditions prescribed by the vendor. VCaP cells in logarithmic growth were seeded in a tissue culture dish at a cell density of 2×10^6 cells per plate. Following 48 hours incubation at 37° C., cells were exposed for a period of 48 hours with 0, 0.05, 0.25 and 0.5 μM concentrations of each test azophenol compound. The inhibition of ERG expression was evaluated by an In-cell Western blot assay (LI-COR Biosciences, Lincoln, Nebr.) using the ERG specific CPDR ERG-MAb as further described below.
Inhibition of ERG protein expression by the test compounds were determined by Western blot analysis. The ERG specific monoclonal antibody CPDR ERG-MAb was used as the primary antibody. In brief, Western blot was performed by running a fixed amount of total protein extracted from cell lysates of the treated cells using (4-12% Bis-Tris) gel by electrophoresis, followed by transfer to membrane and incubation with primary antibody and continued with HRP-conjugated secondary antibody. Cultured cells were treated at specific dosages with each of the tested ERG inhibitors. Following incubation of the treated cells for an indicated time period, cells were lysed using Mammalian Protein Extraction Reagent (M-PER; Pierce, Rockford, Ill.) containing a protease inhibitor cocktail and phosphatase inhibitor cocktails I & III (Sigma, St Louis, Mo.). Cell lysates containing 50 μg of total protein were electrophoresed through 4-12% Bis-Tris Gel (Invitrogen, Carlsbad, Calif.) and the cellular proteins were transferred to PVDF membrane (Invitrogen, Carlsbad, Calif.). Membranes were incubated at 4° C. for 12 hours with primary antibodies for AR, PSA, GAPDH, α-Tubulin, apoptosis markers and cell cycle regulators. Following exposure to primary antibodies, the membranes were washed with buffer (3×, 5 minutes each at room temperature) followed by incubation with relevant secondary antibodies for 1 hour at 24° C. Finally, the membranes were washed with buffer and developed using the ECL Western blot detection reagent (GE Health Care, Buckinghamshire, UK). The ERG protein expression of the test azophenol compounds were normalized with GAPDH.
In brief, ERG positive VCaP cells in loganthmic growth phase were plated in 10 cm tissue culture dish at a cell density of 2×10^6 cells per dish. The plated cells were treated with 0, 0.2, 0.4, 0.6, 0.8 and 1 μM concentrations of each azophenol compound for a period of 48 hours. Cells from each dish were then processed for Western blot analysis and alterations in the expression of ERG protein were monitored. Both ERG and GAPDH protein band were quantified from each concentration using Image J (NIH) and ERG band density was normalized with corresponding GAPDH protein control. Relative density of ERG in each concentration was calculated and with Graphpad Prism 6 software, the IC50 of each compound was calculated.

The test system of the next data set is VCaP cells. Description: VCaP cell growth inhibition. In kind it is cell-based. The conditions noted are these: for IC50: VCaP, metastatic prostate cancer, TMPRSS2-ERG fusion, N/D = assay performed, inhibition not detected at the tested levels. How it is done:
Approximately 48 hours following plating of cells, the appropriate test compound is added to each well of the tissue culture dish at a predetermined concentration. The medium was replenished every 24 hours with fresh growth medium containing the same concentration of the same test compound for indicated period of the cell growth inhibition assay. Percent cell growth inhibition was calculated using a hemocytometer for estimating cell density in each of the test wells of the tissue culture dish and trypan blue dye exclusion microscopy and photography to estimate the fraction of viable cells in each test well.
To investigate whether the azophenol compounds selectively arrested the growth of ERG positive cancer cells (VCaP), VCaP cells were cultured to achieve cells in logarithmic growth and these cells were then plated in 6 well tissue culture dishes in duplicates at a cell density of 0.2×10^6 cells per well. The plated cells were exposed to 0, 0.2, 0.4, 0.6, 0.8 and 1 μM concentrations of each compound for a period of 8 days. At the end of time period, cells were recovered from the test plate, washed, trypsinized and the cell density of viable cells were determined with trypan blue dye staining method and automated cell counter Bio-Rad TC10. The IC50 of cell growth inhibition of each compound was determined by trypsinizing the cells at the end of the experiment and counting the cells by using the automated cell counter (Bio-Rad TC10 automated cell counter). The average cell numbers of each concentration were used to calculate the IC50 of each compound with the GraphPad Prism 6 software.

Data set [2] deals with T2, ERG protein (Homo sapiens, UniProt P11308).
T2 sequence (P11308 1-479): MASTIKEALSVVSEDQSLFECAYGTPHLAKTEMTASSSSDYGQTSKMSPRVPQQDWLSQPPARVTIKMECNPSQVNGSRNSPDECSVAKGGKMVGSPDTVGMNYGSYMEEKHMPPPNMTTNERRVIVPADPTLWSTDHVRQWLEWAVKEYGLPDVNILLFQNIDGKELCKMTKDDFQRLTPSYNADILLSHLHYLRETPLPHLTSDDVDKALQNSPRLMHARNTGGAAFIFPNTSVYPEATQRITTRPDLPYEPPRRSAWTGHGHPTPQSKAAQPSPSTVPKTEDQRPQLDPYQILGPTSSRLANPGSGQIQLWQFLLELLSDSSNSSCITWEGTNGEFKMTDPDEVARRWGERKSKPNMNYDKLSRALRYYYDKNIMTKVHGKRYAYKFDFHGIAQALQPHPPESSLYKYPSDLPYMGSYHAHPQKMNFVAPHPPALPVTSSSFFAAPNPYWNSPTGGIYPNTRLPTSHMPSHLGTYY
Particulars: PCT US2015/020172; cited from earlier work.

Data set [3] relates to normal primary endothelial cells. The conditions noted are these: PCT US2015/020172; cited from earlier work.
Setting [4] is: 0.2, 0.4, 0.6, 0.8 and 1 μM, FIG. 19-22, 24.
Where [5] appears, read: 0.3, 0.6, 1.0, 3.0 and 10.0 μM, FIG. 25-30.

In general, IC50 refers to the concentration that gives 50% inhibition. A high value points to lower potency. With `Oc1ccc(N=Nc2ccccn2)c(O)c1` [Compound 5], the IC50 against ERG protein [1] turned out to be 0.542 µM; in the data set with VCaP cells it was 0.557 µM. Also, the “inhibition of VCaP cell growth” value in the data set on VCaP cells (setting [4]) and in the data set with VCaP cells (setting [5]) was “inhibition” throughout.
As for `CN(C)c1ccc(N=Nc2ccccn2)c(O)c1` [Compound 6], the figures for the half-maximal inhibitory concentration (IC50) against ERG protein [1] and in the data set on VCaP cells were 0.273 µM and 0.0739 µM, respectively. Further, the “inhibition of VCaP cell growth” value in the data set on VCaP cells (0.02, 0.05, 0.10, 0.20 and 0.40 μM, FIG. 23) is given as “inhibition”; in the data set with VCaP cells (setting [4]) it was “inhibition”.
With `Cc1cc(O)cc(O)c1N=Nc1nccs1` [Compound 4], the IC50 is 1.85 µM against ERG protein [1] and 1.12 µM in the data set on VCaP cells. Moreover, in the data set on VCaP cells (setting [5]), the “inhibition of VCaP cell growth” value is on record as “inhibition”.
With `Oc1ccc2ccccc2c1N=Nc1nccs1` [ERGi-USU], at ERG protein [2], the “inhibition of ERG protein in ERG positive cancer cell lines” value was “inhibit the ERG protein”. Moreover, the “effect on normal primary endothelial cells that endogenously express ERG” value in data set [3] is “minimal effect”.
As to `CN(C)c1ccc(N=Nc2ccc(Br)cn2)c(O)c1` [Compound 7], the IC50 against ERG protein [1] was found to be 0.559 µM; with VCaP cells, 0.626 µM. The “inhibition of VCaP cell growth” value in the data set with VCaP cells (setting [4]) is given as “inhibition”.
As to `Cc1cc(N=Nc2nccs2)c(O)cc1O` [Compound 3], the IC50 was found to be 1.35 µM against ERG protein [1] and 4.07 µM in the data set on VCaP cells. Moreover, the “inhibition of VCaP cell growth” value in the data set on VCaP cells (setting [5]) was “inhibition”.
